# Experimental data: US11945790B2 (ImmunoMolecular Therapeutics, Inc., priority 2020, dated 2024)
# Molecular target: HLA-DQ2 (Homo sapiens, UniProt P01909+P01920)
# Assay: Inhibition of IL-2 secretion by TCR transductants stimulated by α-gliadin peptides presented by HLA-DQ2 expressing K562 cells (ELISA)
# Format: cell-based
# Conditions: inhibition of IL-2 secretion at 200 uM; tested as trans racemate unless otherwise noted; lines naming several Examples = stereoisomer mixture of those Examples
# Procedure: Three commercially available analogues of the DQ2 binding molecules of the invention were tested for their ability to inhibit stimulation of T cell receptor (TCR) transductants in the presence of HLA-DQ2 expressing cells presenting known α-gliadin epitopes.
# Using a previously published in vitro assay (Ostrov D, et al. Methyldopa blocks MHC class II binding to disease specific antigens in autoimmune diabetes. J Clin Invest. 2018:128 (5)) the ability of these DQ2 binding analogues to inhibit interleukin-2 (IL-2) secretion by TCR transductants stimulated by α-gliadin peptides presented by HLA-DQ2 was determined. Individual TCR transductants (recognizing a I-gliadin or a II-gliadin) were cultured with a gliadin peptide plus the small molecule analogues in the presence of HLA-DQ2 expressing K562 cells serving as antigen presenting cells. TCR transductants cultured with no gliadin peptide served as the negative control, and incubation with an anti-CD3 antibody (eBioscience; clone 2C11) served as a positive control for the TCR transductant. Secreted IL-2 in the culture supernatant was measured using a highly sensitive enzyme-linked immunosorbent assay (ELISA). […] Assays for effects on cell viability and for specificity, assayed in the absence of gliadin peptide or in the presence of a stimulating anti-CD3 antibody, were performed. Unless otherwise noted, the stereochemistry shown below represents the relative configuration. Further, unless otherwise noted, compounds were tested as the trans racemate.
# HLA-DQ2, sequence (P01920 33-261 limits assumed, other chains not shown): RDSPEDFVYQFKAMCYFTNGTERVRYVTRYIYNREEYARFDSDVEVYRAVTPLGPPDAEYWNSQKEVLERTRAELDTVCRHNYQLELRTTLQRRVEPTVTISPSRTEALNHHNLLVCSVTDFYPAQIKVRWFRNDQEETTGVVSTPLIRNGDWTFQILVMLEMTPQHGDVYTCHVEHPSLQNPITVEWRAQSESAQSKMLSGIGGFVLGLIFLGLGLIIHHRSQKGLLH
row,Structure (SMILES),% Inh at 200 uM
1,Cc1noc(C)c1CCC(=O)N1CCN(C(=O)C2CC2c2ccc3c(c2)OCO3)CC1 (stereo not shown) [Example 15],C (C=25-49%)
2,O=C(CCS(=O)(=O)c1ccccc1)N1CCN(C(=O)C2CC2c2ccc3c(c2)OCO3)CC1 (stereo not shown) [Example 16],A (A=≥75%)
3,CCOc1ccccc1C(=O)N1CCN(C(=O)C2CC2c2ccc3c(c2)OCO3)CC1 (stereo not shown) [Example 17],C (C=25-49%)
4,O=C(c1cc(Cl)ccc1Cl)N1CCN(C(=O)C2CC2c2ccc3c(c2)OCO3)CC1 (stereo not shown) [Example 18],A (A=≥75%)
5,CSc1ccccc1C(=O)N1CCN(C(=O)C2CC2c2ccc3c(c2)OCO3)CC1 (stereo not shown) [Example 19],C (C=25-49%)
6,CN(C)c1cccc(C(=O)N2CCN(C(=O)C3CC3c3ccc4c(c3)OCO4)CC2)c1 (stereo not shown) [Example 20],B (B=50-74%)
7,O=C(c1ccccc1C(F)(F)F)N1CCN(C(=O)C2CC2c2ccc3c(c2)OCO3)CC1 (stereo not shown) [Example 21],C (C=25-49%)
8,O=C(c1ccccc1F)N1CCN(C(=O)C2CC2c2ccc3c(c2)OCO3)CC1 (stereo not shown) [Example 22],B (B=50-74%)
9,O=C(Cc1c(F)cccc1Cl)N1CCN(C(=O)C2CC2c2ccc3c(c2)OCO3)CC1 (stereo not shown) [Example 23],C (C=25-49%)
10,O=C(Cc1cccs1)N1CCN(C(=O)C2CC2c2ccc3c(c2)OCO3)CC1 (stereo not shown) [Example 24],A (A=≥75%)
11,O=C(C1CCCC1)N1CCN(C(=O)C2CC2c2ccc3c(c2)OCO3)CC1 (stereo not shown) [Example 25],A (A=≥75%)
12,CS(=O)(=O)N1CCC(C(=O)N2CCN(C(=O)C3CC3c3ccc4c(c3)OCO4)CC2)CC1 (stereo not shown) [Example 26],C (C=25-49%)
13,COc1cccc([C@H]2C[C@@H]2C(=O)N2CCN(C(=O)CSC3CCCC3)CC2)c1 [Example 27],B (B=50-74%)
14,COc1ccc([C@H]2C[C@@H]2C(=O)N2CCN(C(=O)CSC3CCCC3)CC2)cc1 [Example 28],B (B=50-74%)
15,O=C(CSC1CCCC1)N1CCN(C(=O)[C@H]2C[C@@H]2c2cccc(O)c2)CC1 [Example 29],B (B=50-74%)
16,O=C(CSC1CCCC1)N1CCN(C(=O)[C@H]2C[C@@H]2c2ccc(O)cc2)CC1 [Example 30],D (D=0-24%)
17,N#Cc1cccc([C@H]2C[C@@H]2C(=O)N2CCN(C(=O)CSC3CCCC3)CC2)c1 [Example 31],C (C=25-49%)
18,O=C(CSC1CCCC1)N1CCN(C(=O)[C@H]2C[C@@H]2c2cccc(Cl)c2)CC1 [Example 32],B (B=50-74%)
19,O=C(CSC1CCCC1)N1CCN(C(=O)[C@@H]2C[C@H]2c2ccccc2F)CC1 [Example 33],B (B=50-74%)
20,COc1ccccc1[C@H]1C[C@@H]1C(=O)N1CCN(C(=O)CSC2CCCC2)CC1 [Example 34],B (B=50-74%)
21,O=C(CSC1CCCC1)N1CCN(C(=O)[C@H]2C[C@@H]2c2ccc(F)c(F)c2)CC1 [Example 35],A (A=≥75%)
22,O=C(CSC1CCCC1)N1CCN(C(=O)[C@H]2C[C@@H]2c2ccccc2Cl)CC1 [Example 36],A (A=≥75%)

row,Structure (SMILES),% Inh at 200 uM
1,O=C(CSC1CCCC1)N1CCN(C(=O)[C@H]2C[C@@H]2c2ccccc2O)CC1 [Example 37],B (B=50-74%)
2,"O=C(COC1CCCCC1)N1CCN(C(=O)C2CC2c2ccccc2)CC1 (stereo not drawn) [Example 40, 2-(Cyclohexyloxy)-1-(4-((trans-2-phenylcyclopropanecarbonyl)-piperazin-1-yl)ethanone]",B (B=50-74%)
3,"O=C(CSC1CCCCC1)N1CCN(C(=O)[C@@H]2C[C@H]2c2ccccc2)CC1 [Example 41, 2-(Cyclohexylthio)-1-(4-((1R, 2R)-2-phenylcyclopropane-1-carbonyl)piperazin-1-yl) ethan-1-one]",B (B=50-74%)
4,CC(C)SCC(=O)N1CCN(C(=O)[C@@H]2C[C@H]2c2ccccc2)CC1 [Example 45],C (C=25-49%)
5,Cc1cccc(SCC(=O)N2CCN(C(=O)[C@@H]3C[C@H]3c3ccccc3)CC2)c1 [Example 51],A (A=≥75%)
6,Cc1ccc(SCC(=O)N2CCN(C(=O)[C@@H]3C[C@H]3c3ccccc3)CC2)cc1 [Example 53],B (B=50-74%)
7,COc1cccc(SCC(=O)N2CCN(C(=O)[C@@H]3C[C@H]3c3ccccc3)CC2)c1 [Example 62],C (C=25-49%)
8,COc1ccccc1SCC(=O)N1CCN(C(=O)[C@@H]2C[C@H]2c2ccccc2)CC1 [Example 63],B (B=50-74%)
9,O=C(COC1CCCC1)N1CCN(C(=O)[C@@H]2C[C@H]2c2ccccc2)CC1 [Example 64],B (B=50-74%)
10,CC1(c2ccccc2O)CC1C(=O)N1CCN(C(=O)CSC2CCCC2)CC1 (stereo not shown) [Example 67],C (C=25-49%)
11,O=C(CSC1CCCC1)N1CCN(C(=O)[C@@H]2C[C@H]2c2ccc(F)cc2)CC1 [Example 68],C (C=25-49%)
12,Cc1ccc(SCC(=O)N2CCN(C(=O)[C@@H]3C[C@H]3c3ccccc3)CC2)c(C)c1 [Example 70],A (A=≥75%)
13,NC(=O)c1ccccc1SCC(=O)N1CCN(C(=O)[C@@H]2C[C@H]2c2ccccc2)CC1 [Example 73],C (C=25-49%)
14,O=CNc1ccc(SCC(=O)N2CCN(C(=O)[C@@H]3C[C@H]3c3ccccc3)CC2)cc1 [Example 74],B (B=50-74%)
15,COc1ccc(SCC(=O)N2CCN(C(=O)[C@@H]3C[C@H]3c3ccccc3)CC2)cc1 [Example 75],B (B=50-74%)
16,O=C(CSc1ccc(O)cc1)N1CCN(C(=O)[C@@H]2C[C@H]2c2ccccc2)CC1 [Example 76],C (C=25-49%)
17,O=C(C[S+]([O-])C1CCCC1)N1CCN(C(=O)C2C[C@@H]2c2ccccc2)CC1 (stereo partly shown) [Example 80],B (B=50-74%)
18,O=C(CNC1CCCC1)N1CCN(C(=O)[C@H]2CC2c2ccccc2)CC1 (stereo partly shown) [Example 81],A (A=≥75%)
19,CN(CC(=O)N1CCN(C(=O)[C@H]2CC2c2ccccc2)CC1)C1CCCC1 (stereo partly shown) [Example 82],B (B=50-74%)
20,O=C(CN(C(=O)OCc1ccccc1)C1CCCC1)N1CCN(C(=O)[C@@H]2CC2c2ccccc2)CC1 (stereo partly shown) [Example 83],A (A=≥75%)
21,O=CNc1ccccc1SCC(=O)N1CCN(C(=O)[C@@H]2C[C@H]2c2ccccc2)CC1 [Example 86],C (C=25-49%)
22,O=C(CSc1cccc(O)c1)N1CCN(C(=O)[C@@H]2C[C@H]2c2ccccc2)CC1 [Example 87],C (C=25-49%)

row,Structure (SMILES),% Inh at 200 uM
1,O=C(CSc1ccccc1O)N1CCN(C(=O)[C@@H]2C[C@H]2c2ccccc2)CC1 [Example 88],B (B=50-74%)
2,NC(=O)c1ccc(OCC(=O)N2CCN(C(=O)[C@@H]3C[C@H]3c3ccccc3)CC2)cc1 [Example 89],C (C=25-49%)
3,NC(=O)c1ccccc1OCC(=O)N1CCN(C(=O)[C@@H]2C[C@H]2c2ccccc2)CC1 [Example 90],B (B=50-74%)
4,NC(=O)c1cccc(OCC(=O)N2CCN(C(=O)[C@@H]3C[C@H]3c3ccccc3)CC2)c1 [Example 91],B (B=50-74%)
5,O=CNc1ccccc1OCC(=O)N1CCN(C(=O)[C@@H]2C[C@H]2c2ccccc2)CC1 [Example 93],B (B=50-74%)
6,O=CNc1cccc(OCC(=O)N2CCN(C(=O)[C@@H]3C[C@H]3c3ccccc3)CC2)c1 [Example 94],C (C=25-49%)
7,O=C(COc1ccc(O)cc1)N1CCN(C(=O)[C@@H]2C[C@H]2c2ccccc2)CC1 [Example 95],C (C=25-49%)
8,O=C(COc1cccc(O)c1)N1CCN(C(=O)[C@@H]2C[C@H]2c2ccccc2)CC1 [Example 96],B (B=50-74%)
9,O=C(O)c1ccccc1OCC(=O)N1CCN(C(=O)[C@@H]2C[C@H]2c2ccccc2)CC1 [Example 97],C (C=25-49%)
10,O=C(COc1ccccc1F)N1CCN(C(=O)[C@@H]2C[C@H]2c2ccccc2)CC1 [Example 98],B (B=50-74%)
11,O=C(COc1cccc(F)c1)N1CCN(C(=O)[C@@H]2C[C@H]2c2ccccc2)CC1 [Example 99],B (B=50-74%)
12,COC(=O)c1ccccc1OCC(=O)N1CCN(C(=O)[C@@H]2C[C@H]2c2ccccc2)CC1 [Example 100],C (C=25-49%)
13,COC(=O)c1cccc(OCC(=O)N2CCN(C(=O)[C@@H]3C[C@H]3c3ccccc3)CC2)c1 [Example 101],A (A=≥75%)
14,O=C(CS(=O)(=O)C1CCCC1)N1CCN(C(=O)[C@@H]2CC2c2ccccc2)CC1 (stereo partly shown) [Example 102],C (C=25-49%)
15,O=C(O)c1ccc(SCC(=O)N2CCN(C(=O)[C@@H]3C[C@H]3c3ccccc3)CC2)cc1 [Example 104],B (B=50-74%)
16,O=C(COc1ccccc1O)N1CCN(C(=O)[C@@H]2C[C@H]2c2ccccc2)CC1 [Example 105],B (B=50-74%)
17,O=C(O)c1cccc(OCC(=O)N2CCN(C(=O)[C@@H]3C[C@H]3c3ccccc3)CC2)c1 [Example 107],D (D=0-24%)
18,O=C(COc1ccc(F)cc1)N1CCN(C(=O)[C@@H]2C[C@H]2c2ccccc2)CC1 [Example 108],A (A=≥75%)
19,O=C(O)CCOCC(=O)N1CCN(C(=O)[C@@H]2C[C@H]2c2ccccc2)CC1 [Example 110],D (D=0-24%)
20,O=C(O)CCNCC(=O)N1CCN(C(=O)[C@@H]2C[C@H]2c2ccccc2)CC1 [Example 111],D (D=0-24%)
